Test results reported in patent US20230339851A1, “CXCR6 SULFONAMIDE COMPOUNDS” (CHEMOCENTRYX, INC., priority 2022, published 2023).

target: T1, human CXCR6 (Homo sapiens, UniProt O00574); experiment: Radioligand Binding Assay (125I-CXCL16 displacement); details: L1.2 cells stably transfected with human CXCR6 cDNA, 0.1 nM 125I-CXCL16, 4° C., three-hour incubation; read-out: Potency (IC50)
T1 construct: expressed in transfected cells
How it was run: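 Displacement of 0.1 nM 125I-CXCL16 from human CXCR6 stably expressed in L1.2 cells was measured after a 3 h, 4 °C incubation in HBSS with 0.1% BSA. Filter-bound cpm were counted, and IC50 values came from a 3-parameter nonlinear fit.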

T1 sequence (O00574 whole entry): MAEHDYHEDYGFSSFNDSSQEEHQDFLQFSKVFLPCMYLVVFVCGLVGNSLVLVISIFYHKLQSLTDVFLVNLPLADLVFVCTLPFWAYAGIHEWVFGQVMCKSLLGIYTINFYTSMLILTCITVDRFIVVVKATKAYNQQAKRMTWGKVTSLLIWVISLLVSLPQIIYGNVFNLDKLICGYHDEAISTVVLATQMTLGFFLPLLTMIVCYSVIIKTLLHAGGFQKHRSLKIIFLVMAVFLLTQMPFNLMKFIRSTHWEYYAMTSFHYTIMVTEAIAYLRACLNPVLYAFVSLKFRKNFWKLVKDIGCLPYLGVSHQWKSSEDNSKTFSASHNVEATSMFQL

Row | SMILES | IC50 [nM]
1 | CCOc1cc(NC(=O)[C@@H](O)C(C)C)ccc1S(=O)(=O)Nc1cccc(Cl)c1Cl [Example 1.555] | 2000 to 20000
2 | CC(=O)Nc1ccc(S(=O)(=O)Nc2cccc(C(F)(F)F)c2)c(C(C)C)c1 [Example 1.573] | 2000 to 20000
3 | COc1cc(NC(=O)C2CC3C=CC2C3)ccc1S(=O)(=O)Nc1cccc(C(F)(F)F)c1 (centres unmarked) [Example 1.077] | 2000 to 20000
4 | CCOc1cc(NC(=O)[C@@H](CO)C(C)C)ccc1S(=O)(=O)Nc1cccc(OC(F)(F)F)c1C [Example 1.101] | 2000 to 20000
5 | Cc1cc(NC(=O)C2CCOC2)ccc1S(=O)(=O)Nc1cccc(C(F)(F)F)c1 (centres unmarked) [Example 1.249] | 2000 to 20000
6 | CCOc1cc(NC(=O)[C@H]2CCCC[C@H]2OC)ccc1S(=O)(=O)Nc1cccc(OC(F)(F)F)c1 [Example 1.449] | 2000 to 20000
7 | Cc1cc(NC(=O)CN(C)C)ccc1S(=O)(=O)Nc1cccc(C(F)(F)F)c1 [Example 1.553] | 2000 to 20000
8 | CCOc1cc(NC(=O)CC(O)c2nccn2C)ccc1S(=O)(=O)Nc1cccc(OC(F)(F)F)c1 (centres unmarked) [Example 1.106] | 2000 to 20000
9 | COc1ccc(C(=O)Nc2ccc(S(=O)(=O)Nc3cccc(C(F)(F)F)c3)c(C)c2)cc1 [Example 1.136] | 750 to 2000
10 | Cc1cc(NC(=O)c2c(C)noc2C)ccc1S(=O)(=O)Nc1cccc(C(F)(F)F)c1 [Example 1.325] | 2000 to 20000
11 | Cc1cc(NC(=O)c2ccon2)ccc1S(=O)(=O)Nc1cccc(C(F)(F)F)c1 [Example 1.268] | 750 to 2000
12 | COc1cc(NC(C)=O)ccc1S(=O)(=O)Nc1cccc(C(F)(F)F)c1 [Example 1.374] | 2000 to 20000
13 | CCOc1cc(NC(=O)[C@@H](CO)c2ccccc2)ccc1S(=O)(=O)Nc1cccc(Cl)c1OC [Example 1.190] | 2000 to 20000
14 | CCOc1cc(NC(=O)C2CCC(=O)N2C)ccc1S(=O)(=O)Nc1cccc(OC(F)(F)F)c1 (centres unmarked) [Example 1.081] | 750 to 2000
15 | CCOc1cc(NC(=O)[C@@H](O)C(C)C)ccc1S(=O)(=O)Nc1cccc(C(F)(F)F)c1C [Example 1.312] | 2000 to 20000
16 | CC(=O)Nc1cc(C)c(S(=O)(=O)Nc2cccc(OC(F)(F)F)c2)c(F)c1 [Example 1.444] | 2000 to 20000
17 | COc1cc(NC(=O)c2ccnn2C)ccc1S(=O)(=O)Nc1cccc(C)c1 [Example 1.242] | 2000 to 20000
18 | CCOc1cc(NC(=O)[C@H]2CCCC[C@H]2C(=O)O)ccc1S(=O)(=O)Nc1ccc(C)c(OC(F)(F)F)c1 (racemic) [Example 1.314] | 750 to 2000
19 | CCOc1cc(NC(=O)[C@@H]2C[C@@H](O)[C@@H](O)C2)ccc1S(=O)(=O)Nc1cccc(OC(F)(F)F)c1 [Example 1.280] | 2000 to 20000
20 | COc1cc(NC(=O)c2ccnn2C)ccc1S(=O)(=O)Nc1cccc(N(C)C)c1 [Example 1.337] | 750 to 2000
21 | CCCc1cc(C(=O)Nc2ccc(S(=O)(=O)Nc3cccc(C(F)(F)F)c3)c(OC)c2)n(C)n1 [Example 1.578] | 750 to 2000
22 | CCOc1cc(NC(=O)[C@@H](CO)c2ccccc2)ccc1S(=O)(=O)Nc1cccc(OC(F)(F)F)c1C [Example 1.274] | 2000 to 20000
23 | Cn1nccc1C(=O)Nc1ccc(S(=O)(=O)Nc2cccc(C(F)(F)F)c2)c(F)c1 [Example 1.256] | 2000 to 20000
24 | C[C@@H]1COCC[C@@H]1C(=O)Nc1ccc(S(=O)(=O)Nc2cccc(OC(F)(F)F)c2)c(C#N)c1 (racemic) [Example 1.341] | 2000 to 20000
25 | CC(=O)Nc1cc(C)c(S(=O)(=O)Nc2cccc(C(F)(F)F)c2)c(F)c1 [Example 1.451] | 2000 to 20000
26 | COc1cc(NC(=O)C(C)C2CCCCC2)ccc1S(=O)(=O)Nc1cccc(C(F)(F)F)c1 (centres unmarked) [Example 1.273] | 750 to 2000
27 | CCOc1cc(NC(=O)[C@H]2CC=CC[C@H]2C(=O)O)ccc1S(=O)(=O)Nc1ccc(C)c(OC(F)(F)F)c1 (racemic) [Example 1.333] | 750 to 2000
28 | COc1cc(NC(=O)CC2CCCO2)ccc1S(=O)(=O)Nc1cccc(C(F)(F)F)c1 (centres unmarked) [Example 1.189] | 2000 to 20000
29 | COc1cc(NC(=O)c2ccnn2C)ccc1S(=O)(=O)Nc1ccc2c(c1)OC(F)(F)O2 [Example 1.582] | 750 to 2000

Second part, the compound after the results:

Row | IC50 [nM] | SMILES
30 | ≤ 200 | CCOc1cc(NC(=O)[C@@H](N)C(C)CC)ccc1S(=O)(=O)Nc1cccc(OC(F)(F)F)c1 (some centres unmarked) [Example 1.243]
31 | 200 to 750 | COc1cc(NC(=O)[C@@H](O)C(C)C)ccc1S(=O)(=O)Nc1ccc(C)c(C(F)(F)F)c1 [Example 1.369]
32 | ≤ 200 | CCOc1cc(NC(=O)C(CC2CC=CCC2)C(=O)O)ccc1S(=O)(=O)Nc1cccc(OC(F)(F)F)c1 (centres unmarked) [Example 1.229]
33 | ≤ 200 | CCOc1cc(NC(=O)C2CCC=C[C@@H]2O)ccc1S(=O)(=O)Nc1cccc(OC(F)(F)F)c1 (some centres unmarked) [Example 1.303]
34 | 200 to 750 | CCOc1cc(NS(=O)(=O)c2ccc(NC(=O)[C@@H](CO)C(C)C)cc2OCC)ccc1Cl [Example 1.488]
35 | ≤ 200 | CCOc1cc(NC(=O)[C@@H](O)c2ccccc2Cl)ccc1S(=O)(=O)Nc1cccc(OC(F)(F)F)c1 [Example 1.276]
36 | ≤ 200 | CCOC(=O)[C@H]1CC=CC[C@@H]1C(=O)Nc1ccc(S(=O)(=O)Nc2cccc(OC(F)(F)F)c2)c(OCC)c1 [Example 1.138]
37 | 200 to 750 | Cn1nccc1C(=O)Nc1ccc(S(=O)(=O)Nc2cccc(C(F)(F)F)c2)c(Br)c1 [Example 1.351]
38 | 750 to 2000 | COc1cc(NC(=O)C2CCO[C@@H]2C)ccc1S(=O)(=O)Nc1cccc(OC(F)(F)F)c1 (some centres unmarked) [Example 1.364]
39 | 200 to 750 | CCOc1cc(NC(=O)CC(C)(O)CC)ccc1S(=O)(=O)Nc1cccc(OC(F)(F)F)c1 (centres unmarked) [Example 1.052]
40 | ≤ 200 | CCOc1cc(NC(=O)C(CO)C2CCC2)ccc1S(=O)(=O)Nc1cccc(OC(F)(F)F)c1 (centres unmarked) [Example 1.376]
41 | 200 to 750 | Cc1cc(NC(=O)c2ccnn2C)cc(F)c1S(=O)(=O)Nc1cccc(OC(F)(F)F)c1 [Example 1.502]
42 | 200 to 750 | CCOc1cc(NC(=O)C2COC[C@H]2O)ccc1S(=O)(=O)Nc1cccc(OC(F)(F)F)c1 (mixture of isomers) [Example 1.518]
43 | ≤ 200 | CCOc1cc(NC(=O)[C@@H](CO)C(C)CC)ccc1S(=O)(=O)Nc1cccc(OC(F)(F)F)c1 (some centres unmarked) [Example 1.297]
44 | ≤ 200 | CCOc1cc(NC(=O)[C@H](C2CCCC2)[C@@H](C)O)ccc1S(=O)(=O)Nc1cccc(OC(F)(F)F)c1 (racemic) [Example 1.147]
45 | ≤ 200 | CCOc1cc(NC(=O)C(O)c2cccc(Cl)c2)ccc1S(=O)(=O)Nc1cccc(OC(F)(F)F)c1 (centres unmarked) [Example 1.528]
46 | 200 to 750 | COc1cc(NC(=O)C2=C(C)OCCC2)ccc1S(=O)(=O)Nc1cccc(OC(F)(F)F)c1 [Example 1.525]
47 | ≤ 200 | CCOc1cc(NC(=O)C(CN)c2ccccc2)ccc1S(=O)(=O)Nc1cccc(OC(F)(F)F)c1 (centres unmarked) [Example 1.104]
48 | ≤ 200 | CCOc1cc(NC(=O)[C@@H](O)C(C)C)ccc1S(=O)(=O)Nc1ccc(C)c(C(C)C)c1 [Example 1.445]
49 | ≤ 200 | CCOc1cc(NC(=O)[C@@H](CO)C(C)C)ccc1S(=O)(=O)Nc1ccc(C)c(CC)c1 [Example 1.356]
50 | 200 to 750 | Cc1cc(NC(=O)c2ccccc2Cl)ccc1S(=O)(=O)Nc1cccc(C(F)(F)F)c1 [Example 1.292]

Row | IC50 [nM] | SMILES
51 | 200 to 750 | COc1cc(NC(=O)[C@@H](CO)C(C)C)ccc1S(=O)(=O)Nc1ccc(C)c(C(F)(F)F)c1 [Example 1.495]
52 | ≤ 200 | CCOc1cc(NC(=O)[C@@H](N)C2CC2)ccc1S(=O)(=O)Nc1cccc(OC(F)(F)F)c1 [Example 1.393]
53 | 200 to 750 | CCOc1cc(NC(=O)[C@H]2CCOC[C@H]2O)ccc1S(=O)(=O)Nc1cccc(OC(F)(F)F)c1 (racemic) [Example 1.107]
54 | ≤ 200 | CCOc1cc(NC(=O)[C@@H](O)C(C)C)ccc1S(=O)(=O)Nc1ccc(Cl)c(Cl)c1 [Example 1.375]
55 | 200 to 750 | CCOc1cc(NC(=O)c2cccc(=O)n2C)ccc1S(=O)(=O)Nc1cccc(OC(F)(F)F)c1 [Example 1.037]
56 | ≤ 200 | CCOc1cc(NC(=O)C(O)c2ccc(F)cc2)ccc1S(=O)(=O)Nc1cccc(OC(F)(F)F)c1 (centres unmarked) [Example 1.452]
57 | ≤ 200 | CCOc1cc(NC(=O)C(C(=O)O)C2CCCCC2)ccc1S(=O)(=O)Nc1cccc(OC(F)(F)F)c1 (centres unmarked) [Example 1.484]
58 | 200 to 750 | CCOc1cc(NC(=O)[C@@H](CO)C2CC2)ccc1S(=O)(=O)Nc1cccc(C(C)(C)C)c1 [Example 1.516]
59 | ≤ 200 | CCOc1cc(NC(=O)[C@H]2CC=CC[C@H]2C(=O)O)ccc1S(=O)(=O)Nc1cccc(OC(F)(F)F)c1 [Example 1.160]
60 | 200 to 750 | Cc1cc(NC(=O)c2cccc(F)c2)ccc1S(=O)(=O)Nc1cccc(C(F)(F)F)c1 [Example 1.380]
61 | ≤ 200 | COc1cc(NC(=O)c2ccnn2C)ccc1S(=O)(=O)Nc1cccc(OC(F)(F)F)c1 [Example 1.239]
62 | 200 to 750 | CCOc1cc(NC(=O)[C@H]2CCCC[C@@H]2OC)ccc1S(=O)(=O)Nc1cccc(OC(F)(F)F)c1 [Example 1.307]
63 | ≤ 200 | CCOc1cc(NC(=O)C(CO)C(C)C)ccc1S(=O)(=O)Nc1ccc(Cl)c(OC)c1 (centres unmarked) [Example 1.018]
64 | 200 to 750 | CCOc1cc(NC(=O)[C@@H](CO)c2ccccc2)ccc1S(=O)(=O)Nc1cccc(OC(C)C)c1 [Example 1.119]
65 | 200 to 750 | CCOc1cc(NC(=O)C2CCCOC2)ccc1S(=O)(=O)Nc1cccc(OC(F)(F)F)c1 (centres unmarked) [Example 1.420]
66 | ≤ 200 | COc1cc(NC(=O)[C@@H](CO)C(C)C)ccc1S(=O)(=O)Nc1cccc(OC(F)(F)F)c1 [Example 1.009]
67 | ≤ 200 | CCOc1cc(NC(=O)C(CO)C2CCOC2)ccc1S(=O)(=O)Nc1cccc(OC(F)(F)F)c1 (centres unmarked) [Example 1.199]
68 | 200 to 750 | CCOc1cc(NC(=O)CC(O)C2CCOCC2)ccc1S(=O)(=O)Nc1cccc(OC(F)(F)F)c1 (centres unmarked) [Example 1.401]
69 | 200 to 750 | Cc1cc(NC(=O)c2ccnn2C)cc(C)c1S(=O)(=O)Nc1cccc(C(F)(F)F)c1 [Example 1.504]
70 | ≤ 200 | CCOc1cc(NC(=O)[C@@H](O)C(C)C)ccc1S(=O)(=O)Nc1ccc(Cl)c(C)c1 [Example 1.223]
71 | 200 to 750 | CCOc1cc(NC(=O)C(COC)C(=O)O)ccc1S(=O)(=O)Nc1cccc(OC(F)(F)F)c1 (centres unmarked) [Example 1.127]
